Measured values from US4698306A, “Process for producing peroxidase” (Takara Shuzo Co., Ltd., priority 1984, dated 1987).
Read-outs that look alike come from different tables or passages of the source. Blank lines part the entries; values can stand above or below the compound they belong to.

How the values were obtained:
[1] = target: T1, peroxidase (Coprinopsis cinerea, UniProt P28314); assay: Specificity for hydrogen donors prepared by combining 4-AA with various compounds; type: biochemical, Coprinus macrorhizus K-1330; conditions: hydrogen donor combined with 4-AA, phenol = 100
T1 sequence (P28314 21-363): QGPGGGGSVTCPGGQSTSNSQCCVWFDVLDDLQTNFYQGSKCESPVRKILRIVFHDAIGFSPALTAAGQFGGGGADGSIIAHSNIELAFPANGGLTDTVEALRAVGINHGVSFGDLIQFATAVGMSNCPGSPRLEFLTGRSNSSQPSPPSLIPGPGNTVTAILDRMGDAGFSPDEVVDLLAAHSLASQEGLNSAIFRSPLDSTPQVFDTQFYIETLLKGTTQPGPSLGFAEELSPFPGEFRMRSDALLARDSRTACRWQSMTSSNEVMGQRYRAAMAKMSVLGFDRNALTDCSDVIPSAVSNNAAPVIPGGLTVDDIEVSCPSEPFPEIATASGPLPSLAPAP

[2] = target: T1, peroxidase; assay: Effects of inhibitors, metal ions and metal chelating agents on peroxidase activity; type: biochemical, Coprinus macrorhizus K-1330; conditions: for activity at 1000 µM / Relative activity: 1 min; for activity at 1000 µM: read-out: Relative activity; for Relative activity: peroxidase, 1000 µM
[3] = target: T1, peroxidase; assay: Specificity for hydrogen donors prepared by combining MBTH with dimethylaniline, diethylaniline or EHMT; type: biochemical, Coprinus macrorhizus K-1330; conditions: hydrogen donor combined with MBTH; measured at 590 nm; 4-AA/phenol = 100
[4] = tested on: Coprinus macrorhizus K-1330 (FERM BP-648); assay: Effect of iron salts on the production of peroxidase; type: cell-based; conditions: culture filtrate, 26° C., 5 to 10 days
[5] = additive 1 mM, no addition = 100

SMILES: Oc1c(Cl)cc(Cl)cc1Cl [2,4,6-Trichlorophenol]
Relative activity ([1]; measured at 520 nm): 96%

activity at 1000 µM [2, 5]: 105%
SMILES: N[C@@H](CS)C(=O)O [L-cysteine]

SMILES: [Cl-].[Cl-].[Co+2] [CoCl2]
Relative activity [2]: 98%

SMILES: Oc1ccccc1 [Phenol]
Relative activity ([1]; measured at 500 nm): 100%

activity at 1000 µM [2, 5]: 95%
SMILES: O[C@H](CS)[C@H](O)CS (racemic) [Dithiothreitol]

Relative activity ([1]; measured at 500 nm): 18%
SMILES: Oc1cccc2ccccc12 [α-Naphthol]

SMILES: O=C(O)c1cc[c]([Hg][Cl])cc1 [PCMB, p-Chloromercuribenzoic acid]
Relative activity [2]: 98%

SMILES: Oc1ccc(O)cc1 [Hydroquinone]
Relative activity ([1]; measured at 500 nm): 10%

SMILES: O=C(O)CI [Iodoacetic acid]
activity at 1000 µM [2]: 100%

SMILES: CN(C)c1ccccc1 [Dimethylaniline]
Relative activity [3]: 50% | Relative activity ([1]; measured at 550 nm): 21%

activity at 1000 µM [2, 5]: 88%
SMILES: c1cnc2c(c1)ccc1cccnc12 [o-Phenanthroline]

SMILES: Oc1ccc(Br)cc1Br [2,4-Dibromophenol]
Relative activity ([1]; measured at 520 nm): 47%

SMILES: O.O.O.O.O.O.O.O=S(=O)([O-])[O-].[Fe+2] [FeSO4.7H2 O]
Peroxidase activity (maximum activity) ([4]; 0.04 % FeSO4.7H2O added to medium): 28.0 unit/ml | Peroxidase activity (maximum activity) ([4]; 0.08 % FeSO4.7H2O added to medium): 46.4 unit/ml | Peroxidase activity (maximum activity) ([4]; 0.12 % FeSO4.7H2O added to medium): 75.5 unit/ml | Peroxidase activity (maximum activity) ([4]; 0.16 % FeSO4.7H2O added to medium): 80.2 unit/ml | Peroxidase activity (maximum activity) ([4]; 0.20 % FeSO4.7H2O added to medium): 66.0 unit/ml | Peroxidase activity (maximum activity) ([4]; 0.24 % FeSO4.7H2O added to medium): 36.8 unit/ml | Peroxidase activity (maximum activity) ([4]; 0.32 % FeSO4.7H2O added to medium): 17.0 unit/ml

SMILES: c1ccc(-c2ccccn2)nc1 [α,α'-Dipyridyl]
activity at 1000 µM [2]: 103%

SMILES: Oc1c(Cl)cccc1Cl [2,6-Dichlorophenol]
Relative activity ([1]; measured at 520 nm): 154%

SMILES: O=S(=O)([O-])[O-].[Cu+2] [CuSO4]
Relative activity [2]: 105%

SMILES: [Cl-].[Cl-].[Zn+2] [ZnCl2]
Relative activity [2]: 85%

SMILES: [Cl][Fe]([Cl])[Cl] [FeCl3]
Relative activity [2]: 107%

SMILES: Oc1ccc(Cl)cc1Cl [2,4-Dichlorophenol]
Relative activity ([1]; measured at 520 nm): 115%

SMILES: NC(N)=S [Thiourea]
Inhibition of the enzyme [2]: inhibited | activity at 1000 µM [2]: 57%

SMILES: CCN(CC)c1ccccc1 [Diethylaniline]
Relative activity [3]: 49% | Relative activity ([1]; measured at 550 nm): 49%

SMILES: O=S(=O)([O-])[O-].[Ni+2] [NiSO4]
Relative activity [2]: 92%

SMILES: [N-]=[N+]=[N-] [Sodium azide]
Inhibition of the enzyme [2]: inhibited

SMILES: O=C(O)CN(CCN(CC(=O)O)CC(=O)O)CC(=O)O [EDTA]
activity at 1000 µM [2]: 97%

SMILES: [F-].[Na+] [Sodium fluoride]
Relative activity [2]: 103%

SMILES: [Cl][Sn][Cl] [SnCl2]
Relative activity [2]: 92%

SMILES: O=S(=O)(F)Cc1ccccc1 [PMSF, Phenylmethylsulfonyl fluoride]
Relative activity [2]: 98%

SMILES: [Cl][Hg][Cl] [HgCl2]
Inhibition of the enzyme [2]: inhibited | Relative activity [2]: 6%

SMILES: [Ba+2].[Cl-].[Cl-] [BaCl2]
Relative activity [2]: 96%

SMILES: Oc1ccccc1O [Pyrocatechol]
Relative activity ([1]; measured at 500 nm): 58%

Relative activity [3]: 41% | Relative activity ([1]; measured at 550 nm): 62%
SMILES: CCN(CCO)c1cccc(C)c1 [EHMT, N-ethyl-N-hydroxyethyl-m-toluidine]

SMILES: [Cl][Mn][Cl] [MnCl2]
Relative activity [2]: 86%

Relative activity ([1]; measured at 500 nm): 10%
SMILES: Oc1cccc(O)c1 [Resorcinol]
